Test results reported in a melting point compilation (Tetko et al.; mined from patent text by program, amines drawn as free bases though some values may be those of a salt).

Structure (SMILES)	melting point [°C]
CCOC(=O)CCc1ccc(OCCCc2cn(-c3ccc(C(F)(F)F)cn3)nc2OCC)c(O)c1	92 to 93
CCCCn1cc(C(=O)C(=O)O)c2cc(-c3ccc(C(F)(F)F)cc3)ccc21	149
CNS(=O)(=O)c1ccc(N)c(C(=O)N2CCNCC2)c1	169
N#CC(C#N)=CN(N=C(C#N)C#N)c1cccc(Cl)c1	113 to 115
O=C(NC(Cc1c[nH]c2ccccc12)C(=O)OCc1cccc(C(F)(F)F)c1)c1ccccc1 (stereo not given)	118
NC(CC(=O)O)c1ccc(Br)cc1 (stereo not given)	234
CCc1nn(-c2ccc(F)cc2)c2cc(C(=O)O)ccc12	204 to 205
CC(=O)OCC(=O)C1C(C)CC2C3CC(Cl)C4=CC(=O)CCC4(C)C3C(O)CC21C (stereo not given)	209
O=C(O)c1ccc2c(CCNCc3cccc(OCC(F)(F)F)c3)c[nH]c2c1	232 to 235
Cc1nc2ccc3c(c2o1)OC(CN1C2CCC1CC(O)(c1ccccc1)C2)CO3 (stereo not given)	203 to 205
O=C(Cn1cnnn1)N(O)CCCP(=O)(O)O	157 to 159
COc1cc(NC(=O)OC(C)CN2CCC(c3nn(C)c4cc(F)ccc34)CC2)cc(OC)c1OC (stereo not given)	74 to 77
NS(=O)(=O)c1cc2cc(CCOCc3ccccc3)ccc2s1	136 to 138
O=C1CCC(N2Cc3c(OCc4ccc(CN5CCN(C(=O)C(F)(F)F)CC5)cc4)cccc3C2=O)C(=O)N1 (stereo not given)	125 to 127
c1cc2[nH]ncc2cc1NC1CC2CCC(C1)N2 (stereo not given)	236 to 238
CC(CC(C)(C)C)CP(=O)(O)C1OC(=O)c2ccccc21 (stereo not given)	117 to 121
CN1CCC2(C)c3cc(O)cc([N+](=O)[O-])c3N(C)C12 (stereo not given)	170 to 171
CNS(=O)(=O)c1cn(C)c2cc(C(F)(F)F)ccc2c1=O	218 to 219
COc1cc(NC(=O)Nc2c(-c3ccccc3C)c3cc(C)c(C)cc3oc2=O)cc(OC)c1OC(C)=O	238 to 240
COC(=O)c1ccc(CCNC(=O)C[C@H]2O[C@H](c3cccc(OC)c3OC)c3cc(Cl)ccc3N(CC(C)(C)CO)C2=O)cc1	167 to 169
Clc1ccc2[nH]c3c(Cl)nc4ccccc4c3c2c1	250
COc1ccc2c(c1)c(-c1cc3c(-c4c(C)noc4C)ccnc3[nH]1)cn2C	254 to 255
O=Cc1cc2c(cc1O)OCCO2	114 to 115
CC(O)C#Cc1ncn2c1CN(C)C(=O)c1c(Cl)cccc1-2 (stereo not given)	251 to 252
COc1cc2c(cc1O)C1Cc3c(Cl)cc(OC)c(OC(C)=O)c3CN1CC2 (single isomer, unassigned; (-))	172 to 173
O=c1[nH]c2ccccc2nc1-c1cc(O)c(O)c([N+](=O)[O-])c1	> 300
CSc1ccccc1-c1[nH]c2cccc3c2c1CCNC3=O	271 to 272
O=c1[nH]c2ccc(Cl)cc2c(=O)n1CCCS	255 to 257
Cc1cccc(C=CC=C2SC(=S)N(CC(=O)O)C2=O)c1	220 to 226

More lines, now with the values ahead:

melting point [°C]	Structure (SMILES)
115 to 117	COc1ccc2cc(CN(C)C(=O)c3ccc(Oc4cc(Cl)cc(Cl)c4)o3)ccc2c1Br
172 to 173	Cc1ccc(S(=O)(=O)NN=C2CCCC(=O)C2Cc2ccccc2)cc1 (stereo not given)
111 to 112	CCCCC(=O)N(Cc1ccc2c(c1)c1ccccc1n2CCc1nnn[nH]1)C(C(=O)O)C(C)C (stereo not given)
98 to 110	CCc1noc(C)c1-c1[nH]c2ccccc2c1C(=O)CCC(=O)O
191 to 192	Nc1cc(Cl)nc(S(=O)(=O)Cc2cccc(Br)c2)n1
126 to 128	COc1ccc(C=CC(=O)O)cc1-c1cc2c(cc1OCCCCCCCC(=O)OC(C)(C)C)C(C)(C)CCC2(C)C
175	COC(=O)c1ccc(NCc2cc(O)ccc2O)cc1
219	NC(=NO)C1CCc2ccccc2CC1
200 to 205	CN(Cc1cc(C(=O)O)ccc1N)C1CCCCC1
214 to 217	C[C@]1(COc2ccc(N3CCC(OCC=Cc4ccc(OC(F)(F)F)cc4)CC3)cc2)Cn2cc([N+](=O)[O-])nc2O1
112 to 114	CCCCNC(C)=C1C(=O)OC(=O)C(C(C)=O)=C1O
211 to 212	O=C(c1ccc(C(F)(F)F)cc1)N1Cc2c(-c3ccc(F)cc3)ncn2-c2ccccc21
97 to 98	FC(F)(F)CN1CCOC(CN2c3ccccc3C=Cc3ccccc32)C1 (stereo not given)
117 to 119	COc1ccc(Cn2c(=O)c3nccnc3n(CCCCBr)c2=O)cc1
258 to 260	CCS(=O)(=O)c1cc2c(cc1OC)CCn1c3c(c(-c4cncs4)c1-2)CCCCN(C(C)(C)C)C3=O
215 to 217	CCCn1c(=O)c2[nH]c(C(C)Cc3ccncc3)nc2n(CCC)c1=O (stereo not given)
105 to 106	O=CC1=CCC(F)(C2COC(c3c(F)cccc3F)=N2)C=C1 (stereo not given)
178 to 179	CCCCNC(=O)ONC(=O)Cc1ccc2c(C(=O)OCC)c(N)c(C(=O)OCC)c-2cc1
143 to 144	CCC(O)c1nc(C)nc2c1c(C)c(C)n2-c1c(C)cc(C)cc1C (stereo not given)
72 to 74	CC(C)N1CCC(CNc2ccc(Cl)cc2C(=O)Nc2ccc(F)cn2)CC1
193	Cc1ccccc1NC(C(=O)O)c1c(Cl)ccc(Cl)c1Cl (stereo not given)

melting point [°C]	Structure (SMILES)
170 to 173	CN(C)C1=Nc2ccccc2C(O)(c2ccccc2)C1(C)C (stereo not given)
250	COc1cc2c(cc1OC)-c1nccc3cccc(c13)C2=O
144 to 146	CS(=O)(=O)c1ccc(C2=C(c3ccccc3)C(=O)N(C3CC3)C2)cc1
81 to 82	CCCCCCCc1ccc(NC2=NCCS2)cc1
52 to 55	CCOC(=O)C1OC1C(=O)N(C)C1CCCCC1 (stereo not given)
194 to 196	CNc1nc(-c2cccc(NC(=O)c3ccccc3OC)c2)c2cc(OC)c(OC)cc2n1
126 to 128	CCOC(=O)C(C#N)=Cc1c(Cl)n(Cc2ccc(OC)cc2)c2ccccc12
188 to 190	Cn1ncc(NCCN2CCN(c3cccc4c3OCCO4)CC2)cc1=O
128 to 130	CCOC(=O)CCn1cc(CN(C)C)n(C2CCc3ccccc3C2)c1=S (stereo not given)
134 to 136	COc1cc2ccccc2cc1N(C)C(=O)N1CCN(c2cc(C)cc(C)c2)CC1
249 to 250	O=C(O)CN1CCN2c3ccccc3Cn3cccc3C2C1 (stereo not given)
138 to 143	CN(C)c1cc2c(cc1Cl)NC(=O)CC(c1cccc(-c3nc(CN4CCOCC4)cs3)c1)=N2
159 to 163	COc1cccc(-c2cc3[nH]nc(I)c3s2)c1
205 to 206	CC(C)(C)C(=O)OCOC(=O)[C@H]1[C@@H]2CC[C@@](N)(C(=O)O)[C@@H]21
112	CC(Cl)c1nc2c(C(F)(F)F)cccc2c(=O)o1 (stereo not given)
115 to 116	CC(C)OC(=O)C(C(=O)Nc1ccccc1)=C1SCS1
168 to 170	C#CCN1C(=O)C2CC3CC(C2)CC1C3
207 to 209	COc1cc(F)ccc1-c1c(/C=C/C(O)CC(=O)O)c2ccccc2c(=O)n1C(C)C (stereo not given)
155 to 158	COc1cc(Nc2c(C#N)cnc3cc(-c4cccc(CN5CCOCC5)c4)c(OC)cc23)c(Cl)cc1Cl
202 to 204	Cc1cc(C)cc(NC(=O)[C@@H](C)NC(=O)c2cc([N+](=O)[O-])c(Cl)c([N+](=O)[O-])c2)c1
